melting point [°C] | SMILES
269 to 270 | c1ccc(-c2cc(-c3csc(Nc4ccncc4)n3)on2)cc1
235 to 236 | Cc1ccc(-c2csc(-c3cccc(C(=O)O)c3)n2)cc1C
73 to 75 | C[C@H]1[C@H](c2ccccc2)OC(c2cccc(Br)c2)N1C (stereo partly drawn)
173 to 175 | CCCS(=O)(=O)CC(=O)NNC(=O)N1Cc2ccccc2Oc2ccc(Cl)cc21
115 to 117 | CCCCOCCCNC(=O)c1cnc(C(=O)NCC(=O)OCCCC)c(OC)c1
210 to 211 | CSc1nn2c(N)cc(C(C)C)nc2c1S(=O)(=O)c1ccccc1
234 to 237 | CCN1c2ncccc2C(=O)Nc2c(C)cc(N3CCCCC3CCO)nc21 (stereo not drawn)
127 to 129 | Cc1c(Br)c(=O)n(-c2cc(C(=O)OC(C)C)c(Cl)cc2F)c(=O)n1C
115 to 116 | O=C(CCCC1CCN(Cc2ccccc2)CC1)c1ccc(N2CCCC2)cc1
129 to 131 | CCOC(=O)c1nnc(-c2ccc(S(C)=O)cc2)o1 (stereo not drawn)
249 to 252 | CCS(=O)(=O)Nc1cc(-c2nc[nH]c(=O)c2Cl)c(F)cc1C#N
206 to 208 | O=C(NCC1CCCCC1)c1c(Cl)ccc2nc(N3CC(O)C3)ccc12
105 to 106 | CCCCOC1CCCC(C2NC(=O)C2C(C)O[Si](C)(C)C(C)(C)C)C1O (stereo not drawn)
195 to 197 | CNC(=O)c1cc2ccc3c(c2c(-c2ccc(OC(F)(F)F)cc2)c1CO)OCO3
248 to 250 | COc1cccc2c(=O)c3cccc(OC)c3sc12
270 to 272 | COc1ccc2c(c1)c(-c1cc3nccnc3[nH]1)cn2C
60 to 61 | CCOC(=O)C1=C[C@H](c2ccc(C)cc2)[C@H](CO[Si](C)(C)C(C)(C)C)C(=O)O1
144 to 146 | CC(C)(C)OC(=O)NCc1cccc(C(=O)OCC#N)c1O
180 to 182 | COc1cc2ncnc(N3CCC(CI)CC3)c2cc1OC
212 to 214 | COc1ccc(NC(=O)c2ccc(F)c(F)c2)cc1NS(=O)(=O)c1cccc(C#N)c1
219 to 221 | Cc1c(-c2ccccc2)c(N2CC[C@H](N(C)C)C2)c2oc(N3CC(O)C3)nc2c1C#N
140 to 148 | COC(=O)C1Cc2c([nH]c3ccccc23)C(c2ccc(OC)c(O)c2)N1 (stereo not drawn)
252 to 255 | CC(c1oc2ccc(F)cc2c(=O)c1-c1cccc(F)c1)n1cnc2c(N)ncnc21 (stereo not drawn)
84 to 85 | CCCCC(=O)c1c(O)oc(=O)c(C(=O)CCCC)c1O

melting point [°C] | SMILES
197 to 198 | C[C@@]1(O)CCCC[C@H]1n1nc(-c2c(-c3ccccc3)nn3ccccc23)ccc1=O (relative stereo)
75 | CC(=O)Oc1ccc(N2CCN(C(C)=O)CC2)c(Br)c1
205 to 207 | CC(C)c1nc(-c2ccccc2Cc2ccccc2)cc(-c2ccc(F)cc2)c1C=O
152 to 154 | CCC(C)(CC)C(=O)O[C@H]1C[C@H](O)C=C2C=C[C@H](C)[C@H](CC[C@@H]3C[C@@H](O)CC(=O)O3)[C@H]21
186 to 187 | CSc1c(C(Cc2ccccc2)C(=O)O)cc(C)c2c1[nH]c1ccccc12 (stereo not drawn)
182 to 184 | Cc1cc2nccc(-c3cccnc3)n2n1
148 | COc1ccc(-c2nc(-c3ccc4c(c3)CCCN4C(C)=O)cs2)cc1OC
233 to 235 | COCCOCOc1c(C(C)(C)C)cc(-c2nc(N)n[nH]2)cc1C(C)(C)C
35 to 36.5 | CCOC(=O)c1ccc2ccccc2c1
195 | CN1CCC(OC2c3ccccc3CCn3c2nc(I)c3C#N)CC1 (stereo not drawn)
50 to 53 | CC1CN(C(=O)CO)C(C)(C)O1 (stereo not drawn)
68 to 70 | COC(=O)CC1CC(c2cccc(C3(c4ccc(OC(F)F)cc4)N=C(N)N(C)C3=O)c2)C1 (stereo not drawn)
137 to 138 | N#Cc1ccc(CN2CCN(c3ccncc3)CC2)cc1
134 to 135 | COC(=O)c1ccc(-c2nc(-c3cccc(C(F)(F)F)c3)co2)cc1
165 to 168 | COC(=O)C1Cc2ccccc2NC1=O (stereo not drawn)
140 | CC1(C)CC(=O)c2c(Sc3ccccc3)sc(C(=O)N3CCCC3)c2C1
107 to 109 | CCOC(=O)CCc1cccc2c(=O)c3cc(C(=O)OC)c(OCCCCC=Cc4ccc(OC)cc4)cc3oc12
115 to 125 | CC(C)C(NC(=O)Nc1ccc(C(=O)NCC(=O)N(C)C)cc1)C(=O)N1CCCC1C(=O)NC(C(=O)C(F)(F)F)C(C)C (mixture of isomers)
156 to 158 | NC(=O)Cc1nc(C(=O)c2ccccc2)no1
158 to 160 | COc1ccc(C(=O)Cc2c(Cl)cncc2Cl)c2c1OCCO2
169 to 173 | O=C(Nc1ccc(OC(F)(F)F)cc1)NC1CCNCC1
82 to 83 | COc1c(C=NO)ccc(Cl)c1Cl
65 to 69 | Cc1nn(-c2ccc(F)cc2)cc1C(=O)N(C)c1ccc(OCC(C)(C)C)c(C#N)c1
218 to 219 | COc1ccc(CCc2nc(C(N)=O)c[nH]2)cc1

melting point [°C] | SMILES
131 to 133 | COC(=O)Cc1sc(Sc2cc(C(=O)OC)nc(SC)n2)nc1C
> 300 | COc1ccc(-c2cc3c(O)ncnc3[nH]2)cc1
91 to 94 | CCCC1C=C2NC(=O)CC[C@]2(C)[C@H]2CC[C@]3(C)[C@@H]([C@H](C)CCCC(C)C)CC[C@H]3[C@H]12 (stereo partly drawn)
37 to 39 | Nc1c(Cl)cc(C(F)(F)F)c(Cl)c1Cl
90 to 92 | C[C@H]1C[C@@](O)(c2cccc(Sc3cc4c(cc3F)N(C)C(=O)CC4)c2)CCO1
> 260 | Cc1nc2ccc(C(=O)O)nc2n1Cc1ccc(Cl)cc1Cl
183 to 185 | N=C(Nc1ccc2[nH]cc(-c3ccncc3)c2c1)c1cccs1
195 to 196 | CCCc1c(OCc2cccc(C=CC(=O)O)c2)ccc(C(C)=O)c1O
167 to 168 | CCOC(=O)c1cc(NCc2ccccc2)c(Nc2ccc(C)cc2C)c(S(N)(=O)=O)c1
114 to 115 | COC(=O)c1ccc(CCc2cc3cc(C#N)ccc3o2)cc1
109 to 110 | CCCCOC(=O)C(Cl)=Cc1cc(-n2c(=O)cc(C(F)(F)F)n(C)c2=O)ccc1Cl
186 to 187 | CCCCc1nc2cccc(C(=O)OC)c2n1Cc1ccc(-n2cccc2-c2nnn[nH]2)cc1
119 to 120 | Cc1ccc([N+](=O)[O-])cc1S(=O)(=O)n1ccnc1
103 to 104 | CC(=O)N(C)CC(c1ccc(Cl)cc1)c1ccc(Cl)cc1
184 to 186 | CCCCCn1c(=O)c2cc(C(=O)O)cn2c2ccccc21
318 to 320 | O=C1CCC(N2C(=O)c3ccc(CNC(=O)c4cc5ccccc5s4)cc3C2=O)C(=O)N1 (stereo not drawn)
166 | CN(C)C(=O)Nc1ccc(Oc2cccc(C(F)(F)F)c2)c(Cl)c1
93 to 94 | COc1ccc(CCC(=O)O)cc1OCCCc1cn(-c2ccc(C(F)(F)F)cn2)nc1C(C)C
50 to 52 | CCOC(=O)N(C)n1cccc1C(=O)c1ccccc1
105 to 106 | CN(Cc1cc(C(F)(F)F)cc(C(F)(F)F)c1)C(=O)c1cnc2ccc(Cl)cc2c1-c1ccccc1
62.4 to 63.2 | CCOCCOc1ccc(C(=O)Oc2ccc(C#N)c(F)c2)cc1
67 to 69 | Fc1ccc(C(=C(c2ccccc2)c2ccc(OCCN3CCOCC3)cc2)C(F)(F)F)cc1
147 to 150 | CC(C)(C)OC(=O)N1CCC(c2ccc(COc3ccc(-c4nc[nH]n4)cc3)nc2)CC1
90 to 92 | Cc1cc(Oc2ncc(C(F)(F)F)cc2Cl)nn1C(=O)OC(C)(C)C

melting point [°C] | SMILES
117 to 118 | C=Cc1nnc2ccc3ccccc3n12
122 to 123 | COc1ccc(Cc2ccc(NC3=NCCN3)cc2)s1
182 to 183 | NNC(=O)c1ccc2c(c1)C(=C(Cl)Cl)OC(C(Cl)(Cl)Cl)O2 (stereo not drawn)
247 to 249 | Cc1nsnc1-n1cc(C(=O)O)c(=O)c2cc(F)c(Cl)nc21
116 | CN(C(=O)Nc1ccc(Cl)c(Cl)c1)S(=O)(=O)C(C)(C)C
105 to 107 | CCOC(=O)CCCCn1c(=O)[nH]c2ccc(O)cc2c1=O
170 | CN1CCN(C(=O)c2cn(C)nc2Nc2ccc(C(F)(F)F)cc2N)CC1
172 to 174 | C=C(F)CONC(=O)c1nc(-c2ccc(Cl)c(OC)c2F)cc(N)c1Cl
178 to 179 | O=C1CN(c2nccnc2[N+](=O)[O-])CCN1
221 to 223 | CN1CC[C@@H](c2c(O)cc(O)c3c(=O)cc(-c4cccc(F)c4Cl)oc23)[C@@H]1CO
148 to 150 | COc1cc(Nc2c(C#N)cnc3cc(-c4csc(CN5CCOCC5)c4)c(OC)cc23)c(Cl)cc1Cl
218 to 220 | CNc1nc(-c2cccc([N+](=O)[O-])c2)c2cc(OC)c(OC)cc2n1
243 to 245 | Cc1cc(-c2nnc3c4ccccc4c(OCc4cnc5ccccc5n4)nn23)no1
157 to 158 | O=C(O)c1cccc(-c2ccc3c(c2)C(c2ccc(Cl)cc2Cl)CC3)c1 (stereo not drawn)
157 to 159 | NC(=S)Nc1ccccc1-c1cccc(F)c1
118 to 120 | Oc1ccc2cc(F)ccc2c1
138 to 139 | COC(=O)C(CCON1C(=O)c2ccccc2C1=O)NC(=O)Cc1ccccc1 (stereo not drawn)
322 to 325 | Cn1ccc2c3c(c(I)cc21)C(=O)NC3=O
67 to 72 | CN(C(=O)CC(CCN1CCC(Cc2ccccc2)CC1)c1ccc(Cl)c(Cl)c1)c1ccc(Cl)cc1 (stereo not drawn)
151 to 153 | COC(=O)n1c(SCc2nccc(SCCN3CCOCC3)c2C)nc2ccccc21
249 to 251 | CC(C)n1nc(-c2nc(S(C)(=O)=O)c(N)nc2-c2ccccc2)ccc1=O
170 to 171 | O=S(=O)(Nc1ccc2c(OCc3ccc(-c4cccc(Cl)c4)cc3)cccc2c1)C(F)(F)F
206 to 207 | Cc1ccnc(C(=O)c2[nH]c3cc(Cl)ccc3c2NC(=O)[C@H](C)O)c1

SMILES | melting point [°C]
CN1C(=O)C(C(=O)OCCN2CCOCC2)N=C(c2ccccc2)c2cc(Cl)ccc21 (stereo not drawn) | 162 to 166
CC(=O)Nc1ccc(C#CCCN2CC=C(c3ccccc3)CC2)cc1 | 172 to 173
CCOC(=O)c1c2ccc(CC(=O)NOC(=O)NC)ccc-2c(C(=O)OCC)c1N | 222 to 224

Source: a melting point compilation (Tetko et al.; mined from patent text by program, amines drawn as free bases though some values may be those of a salt)
